Active and inactive are the calls of the source. The rule behind the calls is not given here.
What was measured:
HT-29 [1] = test: Cytotoxicity against human HT-29 spheroids expressing carbonic anhydrase 9/12 assessed as cell viability at 1 mM after 24 hrs by WST8 assay; type: functional
HT-29 [2] = test: Cytotoxicity against human HT-29 spheroids expressing carbonic anhydrase 9/12 assessed as cell viability at 100 uM after 24 hrs by WST8 assay; type: functional
MDA-MB-231 [3] = test: Cytotoxicity against human MDA-MB-231 spheroids expressing carbonic anhydrase 9/12 assessed as cell viability at 1 mM after 24 hrs by WST8 assay; type: functional
MDA-MB-231 [4] = test: Cytotoxicity against human MDA-MB-231 spheroids expressing carbonic anhydrase 9/12 assessed as cell viability at 100 uM after 24 hrs by WST8 assay; type: functional
SK-OV-3 [5] = test: (§1) Cytotoxicity against human SKOV3 spheroids expressing carbonic anhydrase 9/12 assessed as cell viability at 1 mM after 24 hrs by WST8 assay; type: functional
SK-OV-3 [6] = test: (§2) Cytotoxicity against human SKOV3 spheroids expressing carbonic anhydrase 9/12 assessed as cell viability at 100 uM after 24 hrs by WST8 assay; type: functional
Carbonic anhydrase 9 = Carbonic anhydrase 9 (Homo sapiens, UniProt Q16790)
Description: Inhibition of human recombinant carbonic anhydrase 9 preincubated for 15 mins prior to testing by stopped-flow CO2 hydration assay

HT-29 [7] = test: Cytotoxicity against human HT-29 cells expressing carbonic anhydrase 9/12 assessed as cell viability at 1 mM after 24 hrs under normoxic conditions by MTT assay; type: functional; conditions: HT-29, 24 h, read-out: Activity
HT-29 [8] = test: Cytotoxicity against human HT-29 cells expressing carbonic anhydrase 9/12 assessed as cell viability at 1 mM after 24 hrs under hypoxic conditions by MTT assay; type: functional; conditions: HT-29, 24 h, read-out: Activity
MDA-MB-231 [9] = test: Cytotoxicity against human MDA-MB-231 cells expressing carbonic anhydrase 9/12 assessed as cell viability at 1 mM after 24 hrs under normoxic conditions by MTT assay; type: functional; conditions: MDA-MB-231, 24 h, read-out: Activity
MDA-MB-231 [10] = test: Cytotoxicity against human MDA-MB-231 cells expressing carbonic anhydrase 9/12 assessed as cell viability at 1 mM after 24 hrs under hypoxic conditions by MTT assay; type: functional; conditions: MDA-MB-231, 24 h, read-out: Activity
[11] = Cytotoxicity against human SKOV3 cells expressing carbonic anhydrase 9/12 assessed as cell viability at 1 mM after 24 hrs under normoxic conditions by MTT assay; type: functional; conditions: SK-OV-3, 24 h, read-out: Activity
[12] = Cytotoxicity against human SKOV3 cells expressing carbonic anhydrase 9/12 assessed as cell viability at 1 mM after 24 hrs under hypoxic conditions by MTT assay; type: functional; conditions: SK-OV-3, 24 h, read-out: Activity
HT-29 [13] = test: Cytotoxicity against human HT-29 cells expressing carbonic anhydrase 9/12 assessed as cell viability at 100 uM after 24 hrs under normoxic conditions by MTT assay; type: functional; conditions: HT-29, 24 h, read-out: Activity
HT-29 [14] = test: Cytotoxicity against human HT-29 cells expressing carbonic anhydrase 9/12 assessed as cell viability at 100 uM after 24 hrs under hypoxic conditions by MTT assay; type: functional; conditions: HT-29, 24 h, read-out: Activity
MDA-MB-231 [15] = test: Cytotoxicity against human MDA-MB-231 cells expressing carbonic anhydrase 9/12 assessed as cell viability at 100 uM after 24 hrs under normoxic conditions by MTT assay; type: functional; conditions: MDA-MB-231, 24 h, read-out: Activity
MDA-MB-231 [16] = test: Cytotoxicity against human MDA-MB-231 cells expressing carbonic anhydrase 9/12 assessed as cell viability at 100 uM after 24 hrs under hypoxic conditions by MTT assay; type: functional; conditions: MDA-MB-231, 24 h, read-out: Activity
[17] = Cytotoxicity against human SKOV3 cells expressing carbonic anhydrase 9/12 assessed as cell viability at 100 uM after 24 hrs under normoxic conditions by MTT assay; type: functional; conditions: SK-OV-3, 24 h, read-out: Activity
[18] = Cytotoxicity against human SKOV3 cells expressing carbonic anhydrase 9/12 assessed as cell viability at 100 uM after 24 hrs under hypoxic conditions by MTT assay; type: functional; conditions: SK-OV-3, 24 h, read-out: Activity
HT-29 [19] = test: Cytotoxicity against human HT-29 cells expressing carbonic anhydrase 9/12 assessed as cell viability at 10 uM after 24 hrs under normoxic conditions by MTT assay; type: functional; conditions: HT-29, 24 h, read-out: Activity
HT-29 [20] = test: Cytotoxicity against human HT-29 cells expressing carbonic anhydrase 9/12 assessed as cell viability at 10 uM after 24 hrs under hypoxic conditions by MTT assay; type: functional; conditions: HT-29, 24 h, read-out: Activity
MDA-MB-231 [21] = test: Cytotoxicity against human MDA-MB-231 cells expressing carbonic anhydrase 9/12 assessed as cell viability at 10 uM after 24 hrs under normoxic conditions by MTT assay; type: functional; conditions: MDA-MB-231, 24 h, read-out: Activity
MDA-MB-231 [22] = test: Cytotoxicity against human MDA-MB-231 cells expressing carbonic anhydrase 9/12 assessed as cell viability at 10 uM after 24 hrs under hypoxic conditions by MTT assay; type: functional; conditions: MDA-MB-231, 24 h, read-out: Activity
[23] = Cytotoxicity against human SKOV3 cells expressing carbonic anhydrase 9/12 assessed as cell viability at 10 uM after 24 hrs under normoxic conditions by MTT assay; type: functional; conditions: SK-OV-3, 24 h, read-out: Activity
[24] = Cytotoxicity against human SKOV3 cells expressing carbonic anhydrase 9/12 assessed as cell viability at 10 uM after 24 hrs under hypoxic conditions by MTT assay; type: functional; conditions: SK-OV-3, 24 h, read-out: Activity
[25] = as §1; type: functional; conditions: SK-OV-3, 24 h, read-out: Activity
[26] = as §2; type: functional; conditions: SK-OV-3, 24 h, read-out: Activity
[27] = HT-29, 24 h, read-out: Activity
[28] = MDA-MB-231, 24 h, read-out: Activity

## NS(=O)(=O)c1nnc(NC(=O)CCC(=O)O)s1
HT-29 [1]
  Activity: Active
HT-29 [2]
  Activity: Active
MDA-MB-231 [3]
  Activity: inactive
MDA-MB-231 [4]
  Activity: inactive
SK-OV-3 [5]
  Activity: Active
SK-OV-3 [6]
  Activity: Active

## NS(=O)(=O)c1ccc(NC(=O)CCC(=O)NCCOCCOCCOCCOCCOCCOCCOCCOCCOCCOCCOCCOCCOCCOCCOCCOCCOCCOCCOCCOCCOCCOCCOCCOCCOCCOCCOCCOCCOCCOCCOCCOCCOCCOCCOCCOCCOCCOCCOCCOCCOCCOCCOCCOCCOCCNC(=O)CCC(=O)Nc2ccc(S(N)(=O)=O)cc2)cc1
Carbonic anhydrase 9
  Ki: 4.8 nM

## NS(=O)(=O)c1nnc(NC(=O)CCC(=O)NCCOCCOCCOCCOCCOCCOCCOCCOCCOCCOCCOCCOCCOCCOCCOCCOCCOCCOCCOCCOCCOCCOCCOCCOCCOCCOCCOCCOCCOCCOCCOCCOCCOCCOCCOCCOCCOCCOCCOCCOCCOCCOCCOCCOCCOCCNC(=O)CCC(=O)Nc2nnc(S(N)(=O)=O)s2)s1
Carbonic anhydrase 9
  Ki: 2.5 nM
HT-29 [7]
  viability at 1000 µM: 30%
HT-29 [8]
  viability at 1000 µM: 30%
MDA-MB-231 [9]
  viability at 1000 µM: 30%
MDA-MB-231 [10]
  viability at 1000 µM: 30%
[11]
  viability at 1000 µM: 30%
[12]
  viability at 1000 µM: 30%
HT-29 [13]
  viability at 100 µM: 50%
HT-29 [14]
  viability at 100 µM: 50%
MDA-MB-231 [15]
  viability at 100 µM: 50%
MDA-MB-231 [16]
  viability at 100 µM: 50%
[17]
  viability at 100 µM: 50%
[18]
  viability at 100 µM: 50%
HT-29 [19]
  viability at 10 µM: 60%
HT-29 [20]
  viability at 10 µM: 60%
MDA-MB-231 [21]
  viability at 10 µM: 60%
MDA-MB-231 [22]
  viability at 10 µM: 60%
[23]
  viability at 10 µM: 60%
[24]
  viability at 10 µM: 60%
HT-29 [1]; [27]
  viability at 1000 µM: 60%
HT-29 [2]; [27]
  viability at 100 µM: 70%
MDA-MB-231 [3]; [28]
  viability at 1000 µM: 80%
MDA-MB-231 [4]; [28]
  viability at 100 µM: 90%
[25]
  viability at 1000 µM: 50%
[26]
  viability at 100 µM: 80%

## NS(=O)(=O)c1nnc(NC(=O)CCC(=O)NCCOCCOCCNC(=O)CCC(=O)Nc2nnc(S(N)(=O)=O)s2)s1
Carbonic anhydrase 9
  Ki: 9.6 nM

## NS(=O)(=O)c1nnc(NS(=O)(=O)c2ccc(NC(=O)CCC(=O)NCCOCCOCCOCCOCCOCCOCCOCCOCCOCCOCCOCCOCCOCCOCCOCCOCCOCCOCCOCCOCCOCCOCCOCCOCCOCCOCCOCCOCCOCCOCCOCCOCCOCCOCCOCCOCCOCCOCCOCCOCCOCCOCCOCCOCCOCCNC(=O)CCC(=O)Nc3ccc(S(=O)(=O)Nc4nnc(S(N)(=O)=O)s4)cc3)cc2)s1
Carbonic anhydrase 9
  Ki: 1.7 nM

## NS(=O)(=O)c1nnc(NS(=O)(=O)c2ccc(NC(=O)CCC(=O)O)cc2)s1
HT-29 [1]
  Activity: Active
HT-29 [2]
  Activity: Active
MDA-MB-231 [3]
  Activity: inactive
MDA-MB-231 [4]
  Activity: inactive
SK-OV-3 [5]
  Activity: Active
SK-OV-3 [6]
  Activity: Active

## NS(=O)(=O)c1ccc(NC(=O)CCC(=O)NCCOCCOCCNC(=O)CCC(=O)Nc2ccc(S(N)(=O)=O)cc2)cc1
Carbonic anhydrase 9
  Ki: 2.9 nM
HT-29 [1]
  Activity: Active
HT-29 [2]
  Activity: Active
MDA-MB-231 [3]
  Activity: inactive
MDA-MB-231 [4]
  Activity: inactive
SK-OV-3 [5]
  Activity: Active
SK-OV-3 [6]
  Activity: Active

## NS(=O)(=O)c1nnc(NS(=O)(=O)c2ccc(NC(=O)CCC(=O)NCCOCCOCCNC(=O)CCC(=O)Nc3ccc(S(=O)(=O)Nc4nnc(S(N)(=O)=O)s4)cc3)cc2)s1
Carbonic anhydrase 9
  Ki: 24.1 nM
HT-29 [1]
  Activity: Active
HT-29 [2]
  Activity: Active
MDA-MB-231 [3]
  Activity: inactive
MDA-MB-231 [4]
  Activity: inactive
SK-OV-3 [5]
  Activity: Active
SK-OV-3 [6]
  Activity: Active
